Assay results taken from patent publication US20200017496A1 (priority 2017, published 2020).

Test system: Enterobacter cloacae (ECL) isolates
Experiment: MIC of compounds alone and combined with antibacterials, broth microdilution (CLSI)
Format: cell-based
Details: for MIC: Enterobacter cloacae, ATB alone
Summary of the method: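 Log-phase isolates at final 5·10^5 CFU/mL in cation-adjusted Mueller-Hinton broth, incubated 16-20 h at 35° C in ambient air. MIC read visually as lowest concentration preventing growth, for compound alone and for antibacterial at each compound concentration.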

CC(C)(O/N=C(\C(=O)N[C@@H]1C(=O)N2C(C(=O)[O-])=C(C[n+]3ccccc3)CS[C@H]12)c1csc(N)n1)C(=O)O [CAZ, Ceftazidime]
1 µg/mL: MIC ATB in combination (ECL 260508, AF1 @ 4 μg/mL) | MIC ATB in combination (ECL UFR14, AF1 @ 8 μg/mL) | MIC ATB in combination (ECL UFR84, AF1 @ 8 μg/mL) | MIC ATB in combination (ECL UFR85, AF1 @ 4 μg/mL) | MIC (strain ECL UFR194 (OXA-48)) | MIC ATB in combination (strain ECL UFR195, antibacterial combined with AF1 @ 4 μg/mL)
4 µg/mL: MIC ATB in combination (ECL 2185D, AF1 @ 8 μg/mL) | MIC ATB in combination (ECL 190310, AF1 @ 4 μg/mL) | MIC ATB in combination (ECL 260253, AF1 @ 8 μg/mL) | MIC ATB in combination (ECL UFR60, AF1 @ 8 μg/mL) | MIC ATB in combination (ECL UFR84, AF1 @ 4 μg/mL)
512 µg/mL: MIC (strain ECL 260033 (AmpC))
32 µg/mL: MIC ATB in combination (ECL 260323, AF1 @ 8 μg/mL)
<0.25 µg/mL: MIC ATB in combination (ECL 190408, AF1 @ 8 μg/mL) | MIC ATB in combination (ECL 260033, AF1 @ 8 μg/mL)
0.5 µg/mL: MIC ATB in combination (ECL 200322, AF1 @ 4 μg/mL) | MIC ATB in combination (ECL 200322, AF1 @ 8 μg/mL) | MIC ATB in combination (ECL UFR12, AF1 @ 4 μg/mL) | MIC ATB in combination (ECL UFR13, AF1 @ 4 μg/mL) | MIC ATB in combination (ECL UFR13, AF1 @ 8 μg/mL) | MIC ATB in combination (ECL UFR70, AF1 @ 8 μg/mL) | MIC ATB in combination (ECL UFR194, AF1 @ 4 μg/mL) | MIC ATB in combination (ECL UFR200, AF1 @ 4 μg/mL) | MIC ATB in combination (strain ECL UFR195, antibacterial combined with AF1 @ 8 μg/mL)
256 µg/mL: MIC (strain ECL 190310 (AmpC))
16 µg/mL: MIC ATB in combination (ECL 260253, AF1 @ 4 μg/mL) | MIC ATB in combination (ECL UFR60, AF1 @ 4 μg/mL)
<=0.25 μg/mL: MIC ATB in combination (ECL 190408, AF1 @ 4 μg/mL) | MIC ATB in combination (ECL 260508, AF1 @ 8 μg/mL) | MIC ATB in combination (ECL P99, AF1 @ 8 μg/mL) | MIC ATB in combination (ECL UFR12, AF1 @ 8 μg/mL) | MIC ATB in combination (ECL UFR85, AF1 @ 8 μg/mL) | MIC ATB in combination (ECL UFR194, AF1 @ 8 μg/mL) | MIC ATB in combination (ECL UFR200, AF1 @ 8 μg/mL)
2 µg/mL: MIC ATB in combination (ECL 190310, AF1 @ 8 μg/mL) | MIC ATB in combination (ECL 200138, AF1 @ 8 μg/mL) | MIC ATB in combination (ECL NEM146383, AF1 @ 4 μg/mL) | MIC ATB in combination (ECL NEM146383, AF1 @ 8 μg/mL) | MIC ATB in combination (ECL P99, AF1 @ 4 μg/mL) | MIC ATB in combination (ECL UFR14, AF1 @ 4 μg/mL) | MIC ATB in combination (ECL UFR70, AF1 @ 4 μg/mL) | MIC (strain ECL UFR12 (CTX-M-9, OXA-48))
> 256 µg/mL: MIC (strain ECL UFR198 (TEM-1, SHV-12, CTX-M-15, DHA-1, OXA-1, OXA-48)) | MIC (strain ECL 200138 (AmpC)) | MIC (strain ECL 260323 (AmpC)) | MIC (strain ECL UFR13 (TEM-1, SHV-12, CTX-M-9, OXA-48)) | MIC (strain ECL UFR14 (TEM-1, SHV-12, CTX-M-15, DHA-1, OXA-1, OXA-48)) | MIC (strain ECL UFR196 (TEM-1, CTX-M-15, OXA-1, OXA-48)) | MIC (strain ECL UFR200 (TEM-1, SHV-12, KPC-2))
8 µg/mL: MIC ATB in combination (ECL 200138, AF1 @ 4 μg/mL) | MIC ATB in combination (ECL 260033, AF1 @ 4 μg/mL)
